Results: US7700088B2, “Interleukin-9 mutein peptides” (Genaera Corporation, priority 1995, dated 2010)
Entries after “also recorded” stand apart in the source; their conditions may differ.

Tests used:
[1] = test system: IL-9 mediated MO7e proliferation; experiment: Inhibition of IL-9 mediated MO7e proliferation (acid phosphatase cell proliferation assay); assay type: cell-based, human; details: for inhibition of cellular growth induced by IL-9: tyrophostins incubated with MO7e cells, compared with control (no treatment); for inhibition of cellular growth induced by IL-9 (antagonism of IL-9): peptides incubated with MO7e cells, compared with control (no peptide)
Method: Cell lines were used to assess the function of peptides, aminosterols, tyrophostins, rhIL-9, rmIL-9, and recombinant mutant forms of these proteins as well as all other compounds that block IL-9 function. A proliferative response was measured and compared to each of the other cytokines, variant or mutant forms of Il-9, or IL-9 antagonists. In addition, compounds were tested for their ability to antagonize the baseline proliferative response. Once a baseline proliferative response was established for a cytokine a statistically significant loss of response in assays repeated three times in triplicate was considered evidence for antagonism. A true antagonistic response was differentiated from cellular toxicity by direct observation, trypan blue staining (a technique well known to one of normal skill in the art), and loss of acid phosphatase activity. Specificity was assessed for the antagonist by evaluating whether the activity was substantially expressed against other proliferative agents such as steel factor, interleukin 3, or interleukin 4.
The MO7e line is a human megakaryoblastic cell line, cultured in RPMI 1640 (GIBCO/BRL, Gaithersburg, Md.), 20% Fetal Bovine Serum (Hyclone) and 10 ng/ml IL-3 (R&D Systems, Minneapolis, Minn.). The MJ line is a cytokine independent human lymphoblastoid cell line grown in RPMI 1640 (GIBCO/BRL) K562 is a human erthroleukemia cell line, cultured in RPMI 1640 (GIBCO/BRL) and 10% fetal bovine serum (Hyclone). C8166-45 is a IL-9 receptor bearing line, cultured in RPMI 1640 GIBCO/BRL) and 10% Fetal bovine serum (Hyclone). All the cell lines respond to cytokines including IL-9. The cell lines are fed and reseeded at 2×10^5 cells/ml every 72 hours.
The cells were centrifuged for 10 minutes at 2000 rpm and resuspended in RPMI 1640 with 0.5% Bovine Serum Albumin (GIBCO/BRL, Gaithersburg, Md.) and insulin-transferrin-selenium (ITS) cofactors (GIBCO/BRL, Gaithersburg, Md.). Cells were counted using a hemocytometer and diluted to a concentration of 1×10^5 cells/ml and plated in a 96-well microtiter plate. Each well contained 0.15 or 0.2 ml giving a final concentration of 2×10^4 cells per well.
MO7e cells were stimulated with 50 ng/ml Stem Cell Factor (SCF) (R&D Systems, Minneapolis, Minn.) alone, 50 ng/ml SCF plus 50 ng/ml IL-3 (R&D Systems, Minneapolis, Minn.), or 50 ng/ml SCF plus 50 ng/ml IL-9. A control was included which contains cells and basal media only. Serial dilutions of test compounds (i.e., recombinant IL-9 proteins, peptides, small molecules) were added to each test condition in triplicate. The MJ cell line was used as an independent control for nonspecific cytotoxicity. Cultures were incubated for 72-96 hours at 37° C. in 5% CO2.
Cell proliferation was assayed using the Abacus Cell Proliferation Kit (Clontech, Palo Alto, Calif.) which determines the amount of intracellular acid phosphatase present as an indication of cell number. The substrate p-nitrophenyl phosphate (pNPP) was converted by acid phosphatase to p-nitrophenol which was measured as an indicator of enzyme concentration. pNPP was added to each well and incubated at 37° C. for one hour. 1N sodium hydroxide was then added to stop the enzymatic reaction, and the amount of p-nitrophenol was quantified using a Dynatech 2000 plate reader (Dynatech Laboratories, Chantilly, Va.) at 410 nm wavelength. Standard curves that compare cell number with optical absorbance were used to determine the linear range of the assay. Assay results were only used when absorbance measurements are within the linear range of the assay.

[2] = target: T1, Soluble IL-9 receptor (Homo sapiens, UniProt Q01113); experiment: Binding of recombinant IL-9 forms to soluble IL-9 receptor (anti-FLAG immunoprecipitation, Western blot); details: 0.5 micrograms soluble receptor (amino acids 44 to 270), PBS, room temperature, 30 minutes
T1 construct: Soluble IL-9 receptor including amino acids 44 to 270 (R&D Systems); purchased R&D Systems
T1 sequence (Q01113 44-270): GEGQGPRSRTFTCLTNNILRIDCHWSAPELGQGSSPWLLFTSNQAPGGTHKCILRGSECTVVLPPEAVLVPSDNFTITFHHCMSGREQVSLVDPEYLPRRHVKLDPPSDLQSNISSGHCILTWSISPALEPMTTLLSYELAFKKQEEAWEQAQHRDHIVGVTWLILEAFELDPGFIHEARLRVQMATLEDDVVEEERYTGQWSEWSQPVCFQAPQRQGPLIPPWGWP
Method: Soluble IL-9 receptor including amino acids 44 to 270 (R&D Systems) was incubated with different forms of human recombinant IL-9. Varying amounts of FlagMet117 and FlagThr117 (described in Example 7) were incubated in PBS at room temperature for 30 minutes with 0.5 micrograms of soluble receptor. EBC buffer (50 mM Tris pH 7.5; 0.1 M NaCl; 0.5% NP40) was added (300 microliters) was added along with 1 microgram of anti-FLAG monoclonal antibody (IBI) and incubated for 1 hour on ice. Forty microliters of protein A sepharose solution was added to each sample and mixed for 1 hour at 4° C. Samples were centrifuged for 1 minute 11,000×G and pellets were washed 4 times with 500 microliters of EBC. Pellets were dissolved in 26 microliters of 2×SDS buffer, boiled for 4 minutes, and electrophoresed through an 18% SDS polyacrylamide gel. Western blots were performed as described in Example 15 except the blots were probed with an anti-IL-9 receptor antibody (R&D Systems).

## N#C/C(=C\c1ccc(O)c(O)c1)C(=O)NCCCc1ccccc1 [Tyrophostin B46, reference compound]
[1]
  inhibition of cellular growth induced by IL-9: greatest inhibition

## N#C/C(=C\c1ccc(O)c(O)c1)C(=O)NCCCCc1ccccc1 [Tyrophostin B56, reference compound]
[1]
  inhibition of cellular growth induced by IL-9: greatest inhibition

## IL-9 FlagMet117: purified recombinant human FLAG IL-9 fusion protein with methionine at position 117
[2]
  binding to soluble IL-9 receptor: bound to the soluble receptor

## KP-16: antagonistic peptide derived from IL-9 exon 4, IL-9 residues 43-60, SEQ. ID NO: 13 (SDNATRPAFSERLSQMTN)
[1]
  inhibition of cellular growth induced by IL-9 (antagonism of IL-9): considerable inhibitory activity; also recorded: act as IL-9 antagonists

## KP-20: antagonistic peptide derived from IL-9 exon 4, IL-9 residues 71-90, SEQ. ID NO: 14 (FSRVKKSVEVLKNNKAPY)
[1]
  inhibition of cellular growth induced by IL-9 (antagonism of IL-9): considerable inhibitory activity; also recorded: act as IL-9 antagonists

## KP-23: peptide derived from IL-9 exon 5, SEQ ID NO: 15, spanning the codon 117 polymorphism (EQPANQTTAGNALTFLKS)
[1]
  inhibition of cellular growth induced by IL-9 (antagonism of IL-9): antagonistic properties

## KP-24: peptide derived from IL-9 exon 5, SEQ ID NO: 16, spanning the codon 117 polymorphism (TAGNALTFLKSLLEIFQK; Residues 99-116 of Mature hIL-9 Receptor)
[1]
  inhibition of cellular growth induced by IL-9 (antagonism of IL-9): antagonistic properties
